Source: ChEMBL document CHEMBL1201862, “PubChem BioAssay data set” (2004)
Calls of active or inactive are those of the source.

Assays:
Format in all cases: functional
[1] = target: T1, Kappa-type opioid receptor (Homo sapiens, UniProt P41145); assay: SAR analysis of small molecule agonists of the kappa opioid receptor via a luminescent beta-arrestin assay. [Related pubchem assays (depositor defined):AID1777, AID1786, AID1966, AID2133, AID2136, AID2348, AID2352, AID2357, AID2359, AID2370, AID2420, AID2478, AID2491, AID2492, AID2493, AID2497, AID2498, AID2500, AID449737, AID488822, AID488842]
[2] = target: T2, Delta-type opioid receptor (Homo sapiens, UniProt P41143); assay: DOR agonists, SAR follow-up, image-based (AID 2370)
Mu-type opioid receptor [3] = target: T3, Mu-type opioid receptor (Homo sapiens, UniProt P35372); assay: mu opioid receptor activators, image-based, SAR follow-up (AID 2352)
Mu-type opioid receptor [4] = target: T3, Mu-type opioid receptor; assay: mu opioid receptor blockers – image-based, SAR follow-up (AID 2420);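 note: compounds added before stimulation of receptor with agonist DAMGO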
[5] = target: T2, Delta-type opioid receptor; assay: delta opioid receptor blockers – image-based, SAR follow-up (AID 2357)
[6] = target: T1, Kappa-type opioid receptor; assay: kappa opioid receptor activation potency – imaging, image-based, SAR follow-up (AID 2359)
[7] = target: T1, Kappa-type opioid receptor; assay: kappa opioid receptor blockers, image-based, SAR follow-up (AID 2348)
[8] = target: G-protein coupled receptor 55 (Homo sapiens, UniProt Q9Y2T6); assay: blockers of GPR55 signalling, imaged – imaging, image-based, counter-screen for GPR35 antagonist project, SAR follow-up (AID 2397)
[9] = target: T4, Intestinal-type alkaline phosphatase (Mus musculus, UniProt P24822); assay: PubChem AID 488874
[10] = target: T5, Intestinal-type alkaline phosphatase (Homo sapiens, UniProt P09923); assay: human intestinal alkaline phosphatase activators, dose response, biochemical, luminescence, uHTS hits (AID 463120)
[11] = target: T6, Alkaline phosphatase, tissue-nonspecific isozyme (Homo sapiens, UniProt P05186); assay: activation of tissue-nonspecific alkaline phosphatase – biochemical, TNAP isozyme, human IAP uHTS hits, selectivity assay for human IAP activator project, dose response (AID 488886);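 note: potency of compounds raising TNAP activity as a selectivity check on IAP activators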
T6 sequence (P05186 whole entry): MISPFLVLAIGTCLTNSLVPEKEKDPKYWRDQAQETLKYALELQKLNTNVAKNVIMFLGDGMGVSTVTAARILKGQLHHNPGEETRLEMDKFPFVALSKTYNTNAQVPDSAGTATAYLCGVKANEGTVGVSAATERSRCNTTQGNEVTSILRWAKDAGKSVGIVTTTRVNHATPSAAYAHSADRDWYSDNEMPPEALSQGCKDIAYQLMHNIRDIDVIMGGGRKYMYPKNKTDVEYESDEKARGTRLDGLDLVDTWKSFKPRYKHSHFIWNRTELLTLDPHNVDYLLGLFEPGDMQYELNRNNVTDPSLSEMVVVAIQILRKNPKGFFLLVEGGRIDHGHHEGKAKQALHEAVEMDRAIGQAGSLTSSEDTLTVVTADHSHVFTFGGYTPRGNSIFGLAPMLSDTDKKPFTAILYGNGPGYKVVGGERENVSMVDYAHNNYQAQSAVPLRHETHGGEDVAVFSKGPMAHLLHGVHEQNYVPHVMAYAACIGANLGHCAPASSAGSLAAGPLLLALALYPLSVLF

[12] = target: T5, Intestinal-type alkaline phosphatase; assay: activation of human intestinal alkaline phosphatase – biochemical, luminescent, uHTS hits, set 2, dose response (AID 488817);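 note: potency of activators that raise enzyme activity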
[13] = target: T5, Intestinal-type alkaline phosphatase; assay: inhibition of human intestinal alkaline phosphatase – biochemical, dose response (AID 488876)
[14] = target: T6, Alkaline phosphatase, tissue-nonspecific isozyme; assay: TNAP enzyme inhibition by screening hits, dose response, selectivity assay for mouse IAP inhibitor project, biochemical, human TNAP, uHTS hits (AID 488906)
[15] = target: T4, Intestinal-type alkaline phosphatase; assay: PubChem AID 488785

T1 sequence (P41145 whole entry): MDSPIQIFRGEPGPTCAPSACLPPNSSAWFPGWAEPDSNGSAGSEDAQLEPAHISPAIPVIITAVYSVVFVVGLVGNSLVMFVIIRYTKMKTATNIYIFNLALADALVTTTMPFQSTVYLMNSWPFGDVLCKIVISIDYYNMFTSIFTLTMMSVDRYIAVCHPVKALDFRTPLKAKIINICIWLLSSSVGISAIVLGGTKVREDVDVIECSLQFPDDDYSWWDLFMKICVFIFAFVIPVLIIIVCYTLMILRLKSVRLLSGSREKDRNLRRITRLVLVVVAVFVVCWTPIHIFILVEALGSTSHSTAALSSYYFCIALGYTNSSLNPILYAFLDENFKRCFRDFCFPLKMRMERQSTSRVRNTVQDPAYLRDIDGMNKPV
T5 sequence (P09923 whole entry): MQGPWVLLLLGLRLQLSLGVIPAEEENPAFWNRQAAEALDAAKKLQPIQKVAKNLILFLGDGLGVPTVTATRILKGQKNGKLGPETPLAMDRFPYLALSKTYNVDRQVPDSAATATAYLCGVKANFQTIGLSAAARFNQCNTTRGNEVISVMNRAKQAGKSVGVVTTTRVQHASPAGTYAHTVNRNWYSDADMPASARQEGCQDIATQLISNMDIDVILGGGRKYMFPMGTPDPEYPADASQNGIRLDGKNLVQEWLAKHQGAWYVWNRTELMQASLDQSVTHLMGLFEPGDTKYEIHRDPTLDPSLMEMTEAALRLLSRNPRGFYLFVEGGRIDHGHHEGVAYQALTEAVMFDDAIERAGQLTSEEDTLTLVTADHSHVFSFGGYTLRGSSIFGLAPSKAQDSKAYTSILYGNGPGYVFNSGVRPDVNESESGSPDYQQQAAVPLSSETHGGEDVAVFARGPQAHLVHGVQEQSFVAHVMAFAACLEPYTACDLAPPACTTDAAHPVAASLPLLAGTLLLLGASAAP
T4 sequence (P24822 whole entry): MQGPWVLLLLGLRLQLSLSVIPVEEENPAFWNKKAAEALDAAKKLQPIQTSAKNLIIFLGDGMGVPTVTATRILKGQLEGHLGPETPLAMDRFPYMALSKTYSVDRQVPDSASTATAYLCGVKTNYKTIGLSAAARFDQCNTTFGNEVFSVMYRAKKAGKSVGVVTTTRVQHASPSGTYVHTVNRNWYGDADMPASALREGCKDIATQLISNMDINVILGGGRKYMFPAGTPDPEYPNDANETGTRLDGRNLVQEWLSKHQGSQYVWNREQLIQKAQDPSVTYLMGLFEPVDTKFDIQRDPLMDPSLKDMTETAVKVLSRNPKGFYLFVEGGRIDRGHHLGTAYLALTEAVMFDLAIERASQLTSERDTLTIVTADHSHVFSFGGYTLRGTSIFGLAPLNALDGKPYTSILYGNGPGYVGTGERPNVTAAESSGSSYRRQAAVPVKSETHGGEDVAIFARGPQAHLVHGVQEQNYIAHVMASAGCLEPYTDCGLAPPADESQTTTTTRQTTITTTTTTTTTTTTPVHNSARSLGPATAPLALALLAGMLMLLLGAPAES
T2 sequence (P41143 whole entry): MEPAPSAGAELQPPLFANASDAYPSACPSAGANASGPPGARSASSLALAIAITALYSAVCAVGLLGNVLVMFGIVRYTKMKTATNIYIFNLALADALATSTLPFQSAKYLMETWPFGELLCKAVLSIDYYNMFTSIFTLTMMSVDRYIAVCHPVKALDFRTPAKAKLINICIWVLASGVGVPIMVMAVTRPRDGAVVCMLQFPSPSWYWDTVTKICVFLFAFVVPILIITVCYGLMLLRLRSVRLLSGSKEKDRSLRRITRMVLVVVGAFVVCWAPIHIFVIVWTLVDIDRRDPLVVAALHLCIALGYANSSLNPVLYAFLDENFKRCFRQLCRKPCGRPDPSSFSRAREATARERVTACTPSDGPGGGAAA
T3 sequence (P35372 whole entry): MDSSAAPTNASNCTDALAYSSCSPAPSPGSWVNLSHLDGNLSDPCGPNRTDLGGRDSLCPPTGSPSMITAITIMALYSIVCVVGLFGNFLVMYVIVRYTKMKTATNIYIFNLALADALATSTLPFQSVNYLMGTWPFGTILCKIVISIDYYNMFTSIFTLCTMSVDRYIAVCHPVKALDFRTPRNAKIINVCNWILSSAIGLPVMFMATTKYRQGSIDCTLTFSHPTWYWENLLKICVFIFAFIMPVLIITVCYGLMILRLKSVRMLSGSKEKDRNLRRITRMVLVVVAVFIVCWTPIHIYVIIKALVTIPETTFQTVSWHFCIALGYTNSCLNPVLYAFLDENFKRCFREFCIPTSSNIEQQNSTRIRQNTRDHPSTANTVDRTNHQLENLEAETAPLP
Chain of G-protein coupled receptor 55 (Q9Y2T6 whole entry): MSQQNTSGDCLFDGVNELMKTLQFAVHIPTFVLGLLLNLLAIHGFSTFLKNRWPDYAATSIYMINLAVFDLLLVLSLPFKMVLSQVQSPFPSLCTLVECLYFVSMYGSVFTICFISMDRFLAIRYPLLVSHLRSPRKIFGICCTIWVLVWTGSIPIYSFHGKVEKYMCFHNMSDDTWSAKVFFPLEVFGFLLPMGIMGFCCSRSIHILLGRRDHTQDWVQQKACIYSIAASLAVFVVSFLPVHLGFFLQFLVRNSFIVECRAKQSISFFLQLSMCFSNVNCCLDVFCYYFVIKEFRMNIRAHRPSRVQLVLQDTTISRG

CCCCN(Cc1cc2cc(OC)ccc2[nH]c1=O)C(=O)c1ccccn1
EC50 [1]: > 10 µM (inactive) | EC50 [2]: > 32 µM (inactive) | EC50 (Mu-type opioid receptor [3]): > 32 µM (inactive) | IC50 (Mu-type opioid receptor [4]): > 32 µM (inactive) | IC50 [5]: > 32 µM (inactive) | EC50 [6]: 19.9 µM (inactive) | IC50 [7]: > 32 µM (inactive)

CCC(Sc1nc2ccsc2c(=O)n1Cc1ccc(C(=O)O)cc1)C(=O)Nc1ccc(Cl)cc1 (stereo not given)
IC50 [8]: > 32 µM (inactive)

COc1ccc(O)c(/C=N/NC(=S)NCCc2ccccc2)c1
IC50 [9]: 60.7 µM (active) | EC50 [10]: 13.1 µM (active) | EC50 [11]: 26.3 µM (active) | EC50 [12]: 16 µM (active)

CN(CC(=O)NC(c1ccccc1)c1ccccc1)Cc1nc(O)c2ccccc2n1
IC50 [13]: 26.6 µM (active) | IC50 [14]: 74.2 µM (active) | IC50 [15]: 7.93 µM (active)
